The source of these data is US20030083227A1, “Novel combination therapy to treat glaucoma” (priority 1999, published 2003).

As a reminder, the IC50 is the midpoint of a concentration-inhibition curve.

Assay [1] deals with PE cells. As to the kind of experiment: Regulatory volume increase (post-RVD RVI) of PE cells, volumetric measurements. It counts as cell-based, bovine. The method, then:
Volumetric measurements were also performed to confirm that these antiports could function in parallel to transfer solution from the extracellular space into the cells.
Since paired Na^+/H^+ and Cl^−/HCO3^− exchangers were known to contribute to the regulatory volume increase (RVI) in many other cells (Hoffmann, Curr Top Membr Transp 30:125-180 (1987)), the regulatory volume increase in the PE cells was examined. However, the secondary RVI was not observed in the PE cells at room temperature. Consequently, the volumetric experiments were conducted at 34-37° C.
The precise time course of the baseline RVI was variable, so that the data of some experiments were better fit to an exponential expression, and others to a linear expression (filled circles, FIG. 2C). […] Secondary RVI was inhibited either by blocking the Na^+/H^+ antiport with 10 μM dimethylamiloride, or by omitting CO2/HCO3^− from the external solution.
Inhibitors were added at the same time that isotonicity was restored (t=24 min).

Assay [2] has as its system PE cells. As to the kind of experiment: Potency of Na+/H+ antiport inhibitors applied to PE cells. Type of assay: cell-based. The conditions noted are these: amiloride : EIPA. On the procedure:
Carbonic anhydrase inhibition reduces the rate of production of H^+ and HCO3^−, which in turn must slow the rate of delivery of H^+ and HCO3^− to all cell sites, including the antiports. […] To reach a 10-mM concentration, it was necessary to solubilize the amiloride in 30% DMSO. […] Thus, at a concentration 10 times higher than EIPA's minimal effective concentration, amiloride had no effect, consistent with the known ratio of the potency of these inhibitors (3.9:0.07 μM, or ˜56) when applied to PE cells.

For assay [3], the system named is NHE-1. The conditions noted are these: cited from earlier work.
Assay [4] concerns mouse IOP. As to the kind of experiment: Mouse IOP measured with the Servo-Null Micropipette System (SNMS). It counts as in vivo. The conditions noted are these: for ΔIOP (after 1st drug): vs previous period; for effect on IOP: alone; for ΔIOP after base (1st drug): sequential study; for minimally effective droplet concentration: lowering of mouse IOP. The method, then:
Black Swiss outbred mice of mixed sex, 7 to 9 weeks old and approximately 30 g in weight, were obtained from Taconic, Inc. (Germantown, N.Y.). Animals were housed in accordance with National Institutes of Health recommendations, maintained under a 12-hour light-dark illumination cycle, and allowed unrestricted access to food and water. IOP measurements were performed at the same time of day (2-6 PM) to minimize diurnal effects on IOP. All procedures conformed to the ARVO Statement for the Use of Animals in Ophthalmic and Vision Research.
Before all IOP measurements, mice received general anesthesia in the form of intraperitoneal ketamine (250 mg/kg), supplemented by topical proparacaine HCl (0.5%; Allergan, Hormigueros, Puerto Rico). After reaching a stable plane of anesthesia confirmed by absent response to foot pinch, the mice were secured in a surgical stereotaxic device (David Kopf Instruments, Tujunga, Calif.), with the head positioned to avoid any pressure on the animal that could affect IOP. A heating pad at 37° C. (Delta Phase Isothermal Pad, Braintree Scientific, Braintree, Mass.) maintained body temperature. Topical proparacaine supplemented general anesthesia, and corneal dehydration was prevented by topical normal saline (309 mOsm), as necessary. The ground electrode was placed on the conjunctiva of the same or the contralateral eye, carefully avoiding any pressure on the eye.
IOP was measured with the Servo-Null Micropipette System (SNMS), an electrophysiologic, nonmanometric method of measuring pressure, previously adapted and validated for measuring IOP in the mouse (Avila et al., 2001A). The exploring, 5-μm micropipette was filled with 3 M KCl solution to ensure that the resistance of the fluid within the tip was much lower than that of the extracellular fluid. The resistance to electrical flow through the micropipette was continuously monitored and was dominated by the electrical resistance at the tip.
After entry of the tip into the anterior chamber, the step change in hydrostatic pressure forced aqueous humor into the micropipette, displacing the low-resistance 3-M KCl filling solution from the tip back toward the shank. The resultant increase in electrical resistance generated a signal to a vacuum-pressure pump that produced an equal counter-pressure that maintained the position of the aqueous humor-KCl interface at the tip of the micropipette, and thus sustains the original electrical resistance. This counter-pressure equaled the hydrostatic pressure outside the micropipette tip, in this instance the IOP. […] Before every measurement, the system was calibrated externally against a mercury manometer in the range from 0 to 50 mm Hg at 5- to 10-mm Hg intervals.
The micropipettes were fabricated from borosilicate glass (1.5 mm outer diameter, 0.84 mm inner diameter, WPI) with a puller (Sutter Instruments, San Rafael, Calif.). The tips were beveled to an outer diameter of 5 μm and a 45° angle with a micropipette beveler (Sutter).
Using the SNMS as described above, the micropipette tip was next placed in the drop of proparacaine on the cornea overlying the pupil of the subject, and the output reading from the SNMS was adjusted to zero. The micropipette was then advanced across the cornea (at 20-30° to the optical axis) into the anterior chamber by a cell-penetration positioning system (model LSS 21200; Burleigh Instruments, Inc., Fishers, N.Y.) and a piezoelectric step driver (model PZ100; Burleigh). IOP was monitored after positioning the micropipette tip in the aqueous humor. The baseline IOP in the present study was 14.2±0.4 mm Hg (n=113). In measuring drug-induced changes in IOP, each animal served as its own series control. All pressures after drug application were compared with those just before the drug was added.
To determine an individual IOP reading, the mean±SEM was calculated during a 3- to 5-minute recording period. Numbers of experiments or eyes are indicated by the symbol n. […]

The test system of assay [5] is PE cells. The following applies: applied to PE cells; cited from earlier work.
In assay [6] the test system is mouse IOP. The following applies: cited from earlier work.
Setting [7] is: single drug, topical 10-μL droplet, 1 mM.
Where [8] appears, read: single drug, topical 10-μL droplet, 100 μM.
Where [9] appears, read: 1st drug 1 mM topical, vs baseline.
The mark [10] stands for this setting: single drug, topical 10-μL droplet, 3 mM.

In the case of `O=S(=O)(O)c1cc(N=C=S)ccc1C=Cc1ccc(N=C=S)cc1S(=O)(=O)O` [DIDS, 4,4′-diisothiocyanatostilbene-2,2′-disulfonic acid], the “effect on RVI” value in assay [1] (500 μM, added when isotonicity restored, N=3) was “did not inhibit the RVI”.

As for `N=C(N)NC(=O)c1nc(Cl)c(N)nc1N` [amiloride], the “ratio of the potency of these inhibitors” value in assay [2] is given as roughly 56. Also, in assay [3] (Counillon et al., 2000), the “potency at NHE-1 antiports lower than the amiloride analogues DMA and EIPA” value was 1 to 2 orders of magnitude. Also, the ΔIOP in assay [4] (10 mM in 30% DMSO, after pretreatment with vehicle containing 30% DMSO, n=4) is 1.0±0.7 mm Hg; in assay [4] (setting [7]), “no significant effect on mouse IOP”. In assay [5], the potency was 3.9 µM.

Regarding `CCCCNc1cc(C(=O)O)cc(S(N)(=O)=O)c1Oc1ccccc1` [Bumetanide], the “change in IOP” value in assay [4] (10 mM alone, 4 mice) is given as −1.0±1.1 mm Hg. In addition, in assay [4] (10 mM bumetanide after topical ethylisopropyl-amiloride, N=6), the “reduction of IOP” value stood at 4.0±0.6 mm Hg. In addition, the “ΔIOP (after 1st drug)” value in assay [4] (2nd drug 10 mM (36.4 μg) after 1 mM BIIB) is −3.9 ± 0.9 mm Hg; in assay [4] (2nd drug 10 mM (36.4 μg) after 1 mM DMA), −3.8 ± 0.7 mm Hg; in assay [4] (2nd drug 10 mM (36.4 μg) after 1 mM EIPA), −4.0 ± 0.6 mm Hg; in assay [4] (2nd drug 10 mM (36.4 μg) after 55.5 mM dorzolamide) it was −3.9 ± 1.0 mm Hg. Further, the “effect on IOP” value in assay [4] (N=8, 10 uM-10 mM concentrations in topical drops) is “had no significant effect on IOP”; in assay [4] (droplet concentrations of 0.1 to 10 mM (364 ng to 36.4 μg)) it was “had no significant effect on IOP”. The ΔIOP in assay [4] (setting [8]) is given as −0.8 ± 0.7 mm Hg; in assay [4] (setting [7]), −0.7 ± 1.6 mm Hg; in assay [4] (single drug, topical 10-μL droplet, 10 mM), −1.2 ± 0.6 mm Hg. The “effect on RVI” value is recorded as “did not inhibit the RVI” in assay [1] (10 μM, added when isotonicity restored, N=9) and “substantially inhibited the RVI” in assay [1] (alone, in the nominal absence of CO2/HCO3−, P<0.01).

For `Nc1ncnc2c1ncn2[C@@H]1O[C@H](CO)[C@@H](O)[C@H]1O` [adenosine], the “effect on IOP in the contralateral eye” value in assay [6] (100 μM, unilateral topical application) is “does not alter”.

On to `CC(=O)Nc1nnc(S(N)(=O)=O)s1` [acetazolamide], for which the “lowering of mouse IOP” value in assay [6] (intraperitoneal) was 11.9±1.3 mm Hg.

Take `CCN[C@H]1C[C@H](C)S(=O)(=O)c2sc(S(N)(=O)=O)cc21` [Dorzolamide]: the “ΔIOP after base (1st drug)” value in assay [4] (1st drug 55.4 mM (200 μg), series followed by BIIB, n=7) is recorded as −3.5 ± 0.9 mm Hg; in assay [4] (1st drug 55.5 mM (200 μg), series followed by bumetanide, n=4) it was −2.0 ± 0.4 mm Hg. The ΔIOP in assay [4] (single drug, topical 10-μL droplet, 55.4 mM (200 μg)) was −2.9 ± 0.6 mm Hg; in assay [4] (single drug, topical 10-μL droplet, 55.4 mM (200 μg), listed as dorzolamide), “reduces IOP”.

`CN(C)c1nc(N)c(C(=O)N=C(N)N)nc1Cl` [DMA, dimethylamiloride]: the “ΔIOP after base (1st drug)” value in assay [4] (setting [9]) is −4.0 ± 0.8 mm Hg. Also, the ΔIOP result in assay [4] (setting [8]) is “+0.9 ± 0.9 mm Hg”; in assay [4] (setting [10]), −5.0 ± 0.7 mm Hg. For the same molecule, the “reduction of IOP of the treated eye” value in assay [4] (single drug, topical, 1 mM) was 3.8±0.5 mm Hg. Also, the “lowering of IOP” value in assay [4] (single drug, topical, 3 mM) was 5.0±0.7 mm Hg. For the same molecule, in assay [4] (topical), the “minimally effective droplet concentration” value is on record as 1 mM. For the same molecule, the “effect on secondary RVI” value in assay [1] (10 μM, 34-37° C.) is recorded as “inhibited”.

For the molecule `CCN(c1nc(N)c(C(=O)NC(=N)N)nc1Cl)C(C)C` [EIPA, ethylisopropylamiloride], the IC50 in assay [3] (Scholz et al. 1995) was 50 nM. Further, the “ΔIOP after base (1st drug)” value in assay [4] (setting [9]) is recorded as −2.4 ± 0.6 mm Hg. The ΔIOP result in assay [4] (setting [8]) is recorded as “+0.8 ± 0.2 mm Hg”; in assay [4] (setting [7]), −2.6 ± 0.5 mm Hg; in assay [4] (setting [10]), −4.1 ± 1.0 mm Hg. In addition, the “lowering of IOP” value in assay [4] (single drug, topical, 3 mM) worked out at 4.1±1.0 mm Hg. The “minimally effective droplet concentration” value in assay [4] (topical) stood at 1 mM. Also, the potency in assay [5] is 0.07 µM.
